Reference: patent publication US11713338B2, “Cyclic peptides multimers targeting α-4-β-7 integrin” (priority 2016, dated 2023)
Read-outs that look alike come from different tables or passages of the source.

Target: T1, integrin α4β7 on α4β7+ memory T helper cells (Homo sapiens, UniProt P13612+P26010)
T1 construct: endogenous in cells
T1 sequence (P13612 34-1032): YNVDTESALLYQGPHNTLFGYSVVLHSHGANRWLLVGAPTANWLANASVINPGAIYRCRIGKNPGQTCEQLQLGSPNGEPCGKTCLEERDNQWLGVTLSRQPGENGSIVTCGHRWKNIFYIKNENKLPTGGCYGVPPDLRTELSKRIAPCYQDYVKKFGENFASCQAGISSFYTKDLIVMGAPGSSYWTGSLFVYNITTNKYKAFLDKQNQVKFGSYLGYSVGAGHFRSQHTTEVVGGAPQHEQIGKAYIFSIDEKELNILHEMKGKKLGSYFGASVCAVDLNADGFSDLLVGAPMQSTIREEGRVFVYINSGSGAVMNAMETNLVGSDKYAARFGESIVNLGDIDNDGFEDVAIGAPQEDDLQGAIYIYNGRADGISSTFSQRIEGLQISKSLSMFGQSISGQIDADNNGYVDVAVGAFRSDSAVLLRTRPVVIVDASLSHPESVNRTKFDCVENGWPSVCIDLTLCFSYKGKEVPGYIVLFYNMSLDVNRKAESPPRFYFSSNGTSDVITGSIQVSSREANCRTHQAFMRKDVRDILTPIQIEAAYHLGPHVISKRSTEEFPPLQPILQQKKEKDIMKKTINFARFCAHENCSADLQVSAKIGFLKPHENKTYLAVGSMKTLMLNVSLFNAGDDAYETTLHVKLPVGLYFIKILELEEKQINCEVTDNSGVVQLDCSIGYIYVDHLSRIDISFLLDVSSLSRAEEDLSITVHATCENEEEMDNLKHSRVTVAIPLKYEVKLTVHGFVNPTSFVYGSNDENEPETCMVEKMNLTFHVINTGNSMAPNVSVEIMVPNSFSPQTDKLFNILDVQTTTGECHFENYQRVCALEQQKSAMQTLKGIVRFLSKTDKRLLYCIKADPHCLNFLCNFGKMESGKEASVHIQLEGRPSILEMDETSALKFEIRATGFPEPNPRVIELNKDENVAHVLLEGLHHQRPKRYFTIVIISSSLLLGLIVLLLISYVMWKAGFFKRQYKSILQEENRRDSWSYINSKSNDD
T1 sequence (P26010 20-798): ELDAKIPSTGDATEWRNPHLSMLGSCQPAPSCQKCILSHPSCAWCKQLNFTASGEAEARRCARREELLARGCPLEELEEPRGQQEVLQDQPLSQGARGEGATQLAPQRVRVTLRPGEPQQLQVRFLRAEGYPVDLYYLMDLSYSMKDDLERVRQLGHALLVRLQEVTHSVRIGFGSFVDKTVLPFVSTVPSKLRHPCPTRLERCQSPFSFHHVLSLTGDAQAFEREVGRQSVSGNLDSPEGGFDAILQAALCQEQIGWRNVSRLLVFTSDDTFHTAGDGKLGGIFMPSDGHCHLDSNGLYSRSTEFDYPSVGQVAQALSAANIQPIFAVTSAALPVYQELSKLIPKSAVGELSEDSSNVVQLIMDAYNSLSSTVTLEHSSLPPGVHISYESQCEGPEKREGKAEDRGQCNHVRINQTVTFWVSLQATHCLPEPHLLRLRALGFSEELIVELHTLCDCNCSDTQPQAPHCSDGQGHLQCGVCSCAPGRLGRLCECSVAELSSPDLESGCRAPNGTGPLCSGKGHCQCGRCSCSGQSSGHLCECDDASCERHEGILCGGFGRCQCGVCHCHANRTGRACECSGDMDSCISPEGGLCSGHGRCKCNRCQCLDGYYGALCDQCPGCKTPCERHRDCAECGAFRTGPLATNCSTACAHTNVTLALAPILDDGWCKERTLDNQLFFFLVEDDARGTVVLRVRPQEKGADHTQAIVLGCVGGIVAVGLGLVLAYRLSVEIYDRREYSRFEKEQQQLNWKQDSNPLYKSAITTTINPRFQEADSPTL
Test: MAdCAM-1 competition / receptor occupancy assay in human whole blood, α4β7-positive Th memory cells
Type: cell-based
In short: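 Human heparinised whole blood; saturating biotinylated rhMAdCAM-1-Fc or rhVCAM-1-Fc bound 1 h at RT, stained in buffer with 4 mM MnCl2, detected by streptavidin-APC flow cytometry on gated CD45+CD3+CD4+CD45RO+CD49d+ β7+ or β7-lo cells. Occupancy = 100−((% ligand-positive cells with compound/% ligand-positive cells DMSO)*100).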

[1] = human whole blood, inhibition of MAdCAM-1 binding to α4β7-positive Th memory cells, FACS, read-out: MADCAM FACS α4β7 Th mem

With `CC(C)C[C@@H]1NC(=O)c2ccc(-c3ccc(N4CCN(C(=O)COCC(=O)N5CCN(c6ccc(-c7ccc8cc7CNC(=O)[C@@H]7CCCN7[C@H](C(=O)NC(C)(C)C)[C@H](C)NC(=O)[C@H]([C@@H](C)O)NC(=O)[C@H](CC(=O)O)NC(=O)[C@H](CC(C)C)NC8=O)cc6)CC5)CC4)cc3)c(c2)CNC(=O)[C@@H]2CCCN2[C@H](C(=O)NC(C)(C)C)[C@H](C)NC(=O)[C@H]([C@@H](C)O)NC(=O)[C@H](CC(=O)O)NC1=O` [Compound 390] the EC50 (human whole blood, FIG. 7, read-out: EC50, competition with saturating amount of MAdCAM) was 90 nM and the IC50 [1] was 90 nM.

Molecule `CC(C)C[C@@H]1NC(=O)c2ccc(-c3ccc(N4CCN(C(=O)[C@H]5CCC[C@H]5C(=O)N5CCN(c6ccc(-c7ccc8cc7CNC(=O)[C@@H]7CCCN7[C@H](C(=O)NC(C)(C)C)[C@H](C)NC(=O)[C@H]([C@@H](C)O)NC(=O)[C@H](CC(=O)O)NC(=O)[C@H](CC(C)C)NC8=O)cc6)CC5)CC4)cc3)c(c2)CNC(=O)[C@@H]2CCCN2[C@H](C(=O)NC(C)(C)C)[C@H](C)NC(=O)[C@H]([C@@H](C)O)NC(=O)[C@H](CC(=O)O)NC1=O` [Compound 458] has an IC50 [1] of 66 nM.

For `CC(C)C[C@@H]1NC(=O)c2ccc(-c3ccc(N4CCN(C(=O)c5ccc(-c6ccc(C(=O)N7CCN(c8ccc(-c9ccc%10cc9CNC(=O)[C@@H]9CCCN9[C@H](C(=O)NC(C)(C)C)[C@H](C)NC(=O)[C@H]([C@@H](C)O)NC(=O)[C@H](CC(=O)O)NC(=O)[C@H](CC(C)C)NC%10=O)cc8)CC7)cc6)cc5)CC4)cc3)c(c2)CNC(=O)[C@@H]2CCCN2[C@H](C(=O)NC(C)(C)C)[C@H](C)NC(=O)[C@H]([C@@H](C)O)NC(=O)[C@H](CC(=O)O)NC1=O` [Compound 474], the IC50 [1] was 74 nM.

For `CC(C)C[C@@H]1NC(=O)C[C@H](CCCCN)N(C)C(=O)[C@H](CCCCN)NC(=O)[C@@H]2CCCN2[C@H](C(=O)NC(C)(C)C)[C@H](C)NC(=O)[C@H]([C@@H](C)O)NC(=O)[C@H](CC(=O)O)NC1=O` [Compound 456], the receptor occupancy at 1 µM (human whole blood, 1000 nM, read-out: receptor occupancy at maximum concentration) was 15% and the IC50 (human whole blood, inhibition of MAdCAM-1 binding to α4β7-positive Th memory cells, FACS, read-out: MADCAM FACS a4b7 Th mem) was 1000 nM.

In the case of `CC(C)C[C@@H]1NC(=O)c2ccc(-c3ccc(N4CCN(C(=O)CCC(=O)N5CCN(c6ccc(-c7ccc8cc7CNC(=O)[C@@H]7CCCN7[C@H](C(=O)NC(C)(C)C)[C@H](C)NC(=O)[C@H]([C@@H](C)O)NC(=O)[C@H](CC(=O)O)NC(=O)[C@H](CC(C)C)NC8=O)cc6)CC5)CC4)cc3)c(c2)CNC(=O)[C@@H]2CCCN2[C@H](C(=O)NC(C)(C)C)[C@H](C)NC(=O)[C@H]([C@@H](C)O)NC(=O)[C@H](CC(=O)O)NC1=O` [Compound 484], the IC50 [1] is reported as 45 nM.

In the case of `CC(C)C[C@@H]1NC(=O)C[C@H](CCCCN)N(C)C(=O)[C@H](CCCCNC(=O)CCCCCCCCC(=O)NCCCC[C@@H]2NC(=O)[C@@H]3CCCN3[C@H](C(=O)NC(C)(C)C)[C@H](C)NC(=O)[C@H]([C@@H](C)O)NC(=O)[C@H](CC(=O)O)NC(=O)[C@H](CC(C)C)NC(=O)C[C@H](CCCCN)N(C)C2=O)NC(=O)[C@@H]2CCCN2[C@H](C(=O)NC(C)(C)C)[C@H](C)NC(=O)[C@H]([C@@H](C)O)NC(=O)[C@H](CC(=O)O)NC1=O` [Compound 530], the IC50 [1] is reported as 33 nM and the IC50 (whole blood from a single donor, FIG. 10, read-out: IC50, inhibition of MAdCAM-1 binding to primary cells) is reported as 87 to 141 nM.

For `CC(C)C[C@@H]1NC(=O)c2ccc(-c3ccc(N4CCN(C(=O)CC[C@H](N)C(=O)N5CCN(c6ccc(-c7ccc8cc7CNC(=O)[C@@H]7CCCN7[C@H](C(=O)NC(C)(C)C)[C@H](C)NC(=O)[C@H]([C@@H](C)O)NC(=O)[C@H](CC(=O)O)NC(=O)[C@H](CC(C)C)NC8=O)cc6)CC5)CC4)cc3)c(c2)CNC(=O)[C@@H]2CCCN2[C@H](C(=O)NC(C)(C)C)[C@H](C)NC(=O)[C@H]([C@@H](C)O)NC(=O)[C@H](CC(=O)O)NC1=O` [Compound 494], the IC50 [1] was 128 nM.

With `CC(C)C[C@@H]1NC(=O)c2ccc(-c3ccc(N4CCN(C(=O)CCOCCOCCOCCOCCOCCOCCOCCOCCOCCOCCC(=O)N5CCN(c6ccc(-c7ccc8cc7CNC(=O)[C@@H]7CCCN7[C@H](C(=O)NC(C)(C)C)[C@H](C)NC(=O)[C@H]([C@@H](C)O)NC(=O)[C@H](CC(=O)O)NC(=O)[C@H](CC(C)C)NC8=O)cc6)CC5)CC4)cc3)c(c2)CNC(=O)[C@@H]2CCCN2[C@H](C(=O)NC(C)(C)C)[C@H](C)NC(=O)[C@H]([C@@H](C)O)NC(=O)[C@H](CC(=O)O)NC1=O` [Compound 511] the IC50 [1] was 182 nM.
